According to PubChem BioAssay (NCI):
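Cultured in 96-well plates, cells were exposed to test compound for 48 hours across five concentrations. TGI is the concentration that stops growth completely.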

Legend:
Experiment in all cases: NCI anticancer screen, dose series, 48 h
HCT-116 colon = tested on: HCT-116 colon
LXFL 529 NSCLC = tested on: LXFL 529 NSCLC
NCI-H226 lung = tested on: NCI-H226 lung
NCI-H23 lung = tested on: NCI-H23 lung
CAKI-1 renal = tested on: CAKI-1 renal
MOLT-4 leukemia = tested on: MOLT-4 leukemia
TK-10 renal = tested on: TK-10 renal
A498 renal = tested on: A498 renal
UACC-62 melanoma = tested on: UACC-62 melanoma
SNB-75 CNS = tested on: SNB-75 CNS
M14 melanoma = tested on: M14 melanoma
SNB-78 CNS = tested on: SNB-78 CNS
IGROV1 ovarian = tested on: IGROV1 ovarian
UO-31 renal = tested on: UO-31 renal
HOP-62 NSCLC = tested on: HOP-62 NSCLC
SF-539 CNS = tested on: SF-539 CNS
HCT-15 colon = tested on: HCT-15 colon
HL-60(TB) leukemia = tested on: HL-60(TB) leukemia
SK-OV-3 ovarian = tested on: SK-OV-3 ovarian
SNB-19 CNS = tested on: SNB-19 CNS
SR leukemia = tested on: SR leukemia
LOX IMVI melanoma = tested on: LOX IMVI melanoma
DMS 273 small cell lung = tested on: DMS 273 small cell lung
OVCAR-8 ovarian = tested on: OVCAR-8 ovarian
MALME-3M melanoma = tested on: MALME-3M melanoma
KM20L2 colon = tested on: KM20L2 colon
CCRF-CEM leukemia = tested on: CCRF-CEM leukemia
K-562 leukemia = tested on: K-562 leukemia
UACC-257 melanoma = tested on: UACC-257 melanoma
KM12 colon = tested on: KM12 colon
HCC-2998 colon = tested on: HCC-2998 colon
XF 498 CNS = tested on: XF 498 CNS
OVCAR-4 ovarian = tested on: OVCAR-4 ovarian
SF-295 CNS = tested on: SF-295 CNS
EKVX NSCLC = tested on: EKVX NSCLC
SF-268 CNS = tested on: SF-268 CNS
RXF 393 renal = tested on: RXF 393 renal
NCI-H522 lung = tested on: NCI-H522 lung
SK-MEL-2 melanoma = tested on: SK-MEL-2 melanoma
COLO 205 colon = tested on: COLO 205 colon
M19-MEL melanoma = tested on: M19-MEL melanoma
786-0 renal = tested on: 786-0 renal
HT29 colon = tested on: HT29 colon
OVCAR-3 ovarian = tested on: OVCAR-3 ovarian
SK-MEL-5 melanoma = tested on: SK-MEL-5 melanoma
DLD-1 colon = tested on: DLD-1 colon
OVCAR-5 ovarian = tested on: OVCAR-5 ovarian
HOP-18 NSCLC = tested on: HOP-18 NSCLC
U251 CNS = tested on: U251 CNS
SN12C renal = tested on: SN12C renal
HOP-92 NSCLC = tested on: HOP-92 NSCLC
SK-MEL-28 melanoma = tested on: SK-MEL-28 melanoma
RPMI-8226 leukemia = tested on: RPMI-8226 leukemia
ACHN renal = tested on: ACHN renal
A549 NSCLC = tested on: A549 NSCLC
NCI-H460 lung = tested on: NCI-H460 lung
SW-620 colon = tested on: SW-620 colon
DU-145 prostate = tested on: DU-145 prostate
DMS 114 small cell lung = tested on: DMS 114 small cell lung

Compound: CCOC(=O)C1=C(OC(OCC)C(C)[Se]c2ccccc2)CCC1 (centres undefined)
- TGI (HCT-116 colon): 38.8 µM
- TGI (LXFL 529 NSCLC): 37.4 µM
- TGI (NCI-H226 lung): 50.4 µM
- TGI (NCI-H23 lung): 27.9 µM
- TGI (CAKI-1 renal): > 100 µM
- TGI (MOLT-4 leukemia): 58.5 µM
- TGI (TK-10 renal): > 100 µM
- TGI (A498 renal): > 100 µM
- TGI (UACC-62 melanoma): 43.6 µM
- TGI (SNB-75 CNS): 73.6 µM
- TGI (M14 melanoma): 63.2 µM
- TGI (SNB-78 CNS): > 100 µM
- TGI (IGROV1 ovarian): 81 µM
- TGI (UO-31 renal): 47.1 µM
- TGI (HOP-62 NSCLC): > 100 µM
- TGI (SF-539 CNS): 39.9 µM
- TGI (HCT-15 colon): 33.6 µM
- TGI (HL-60(TB) leukemia): 21.2 µM
- TGI (SK-OV-3 ovarian): > 100 µM
- TGI (SNB-19 CNS): > 100 µM
- TGI (SR leukemia): 28 µM
- TGI (LOX IMVI melanoma): 20.4 µM
- TGI (DMS 273 small cell lung): 22.4 µM
- TGI (OVCAR-8 ovarian): 30.1 µM
- TGI (MALME-3M melanoma): 89.5 µM
- TGI (KM20L2 colon): 74.2 µM
- TGI (CCRF-CEM leukemia): 49.7 µM
- TGI (K-562 leukemia): > 100 µM
- TGI (UACC-257 melanoma): > 100 µM
- TGI (KM12 colon): > 100 µM
- TGI (HCC-2998 colon): > 100 µM
- TGI (XF 498 CNS): 34.4 µM
- TGI (OVCAR-4 ovarian): 37.5 µM
- TGI (SF-295 CNS): 79.3 µM
- TGI (EKVX NSCLC): 59.1 µM
- TGI (SF-268 CNS): 32.3 µM
- TGI (RXF 393 renal): 30.2 µM
- TGI (NCI-H522 lung): 26.9 µM
- TGI (SK-MEL-2 melanoma): > 100 µM
- TGI (COLO 205 colon): 82.2 µM
- TGI (M19-MEL melanoma): 38.9 µM
- TGI (786-0 renal): 25.1 µM
- TGI (HT29 colon): 77.6 µM
- TGI (OVCAR-3 ovarian): 32 µM
- TGI (SK-MEL-5 melanoma): 39.9 µM
- TGI (DLD-1 colon): 40.5 µM
- TGI (OVCAR-5 ovarian): > 100 µM
- TGI (HOP-18 NSCLC): 51.7 µM
- TGI (U251 CNS): 20.1 µM
- TGI (SN12C renal): 36.5 µM
- TGI (HOP-92 NSCLC): 48.3 µM
- TGI (SK-MEL-28 melanoma): 62.7 µM
- TGI (RPMI-8226 leukemia): 36.5 µM
- TGI (ACHN renal): 68.4 µM
- TGI (A549 NSCLC): > 100 µM
- TGI (NCI-H460 lung): 60 µM

Compound: COc1ccc(Nc2nc3c(N)cc(C(F)(F)F)cc3nc2-c2ccccc2)cc1OC
- TGI (HCT-116 colon): > 100 µM
- TGI (LXFL 529 NSCLC): 46.4 µM
- TGI (SW-620 colon): > 100 µM
- TGI (NCI-H226 lung): 57.9 µM
- TGI (NCI-H23 lung): > 100 µM
- TGI (CAKI-1 renal): 42.5 µM
- TGI (MOLT-4 leukemia): > 100 µM
- TGI (TK-10 renal): 47.3 µM
- TGI (A498 renal): 70 µM
- TGI (UACC-62 melanoma): 44.6 µM
- TGI (SNB-75 CNS): 17.5 µM
- TGI (M14 melanoma): > 100 µM
- TGI (SNB-78 CNS): 75.7 µM
- TGI (IGROV1 ovarian): 69.7 µM
- TGI (UO-31 renal): 95.3 µM
- TGI (HOP-62 NSCLC): 57.8 µM
- TGI (SF-539 CNS): 39.6 µM
- TGI (HCT-15 colon): > 100 µM
- TGI (HL-60(TB) leukemia): > 100 µM
- TGI (SK-OV-3 ovarian): 28.6 µM
- TGI (SNB-19 CNS): 53.8 µM
- TGI (SR leukemia): > 100 µM
- TGI (LOX IMVI melanoma): > 100 µM
- TGI (DMS 273 small cell lung): > 100 µM
- TGI (OVCAR-8 ovarian): 43.2 µM
- TGI (MALME-3M melanoma): 38.5 µM
- TGI (KM20L2 colon): > 100 µM
- TGI (CCRF-CEM leukemia): > 100 µM
- TGI (K-562 leukemia): > 100 µM
- TGI (UACC-257 melanoma): 63.9 µM
- TGI (KM12 colon): > 100 µM
- TGI (HCC-2998 colon): 89.6 µM
- TGI (XF 498 CNS): 33.1 µM
- TGI (OVCAR-4 ovarian): 33.8 µM
- TGI (SF-295 CNS): 44.8 µM
- TGI (EKVX NSCLC): 59.7 µM
- TGI (SF-268 CNS): 71.1 µM
- TGI (RXF 393 renal): 50.2 µM
- TGI (NCI-H522 lung): 43.9 µM
- TGI (SK-MEL-2 melanoma): 69.1 µM
- TGI (COLO 205 colon): > 100 µM
- TGI (M19-MEL melanoma): 60.4 µM
- TGI (786-0 renal): 28.9 µM
- TGI (OVCAR-3 ovarian): 42.9 µM
- TGI (SK-MEL-5 melanoma): 62.3 µM
- TGI (DLD-1 colon): > 100 µM
- TGI (OVCAR-5 ovarian): > 100 µM
- TGI (HOP-18 NSCLC): 43.8 µM
- TGI (U251 CNS): 42.8 µM
- TGI (SN12C renal): 47.1 µM
- TGI (HOP-92 NSCLC): 46.3 µM
- TGI (SK-MEL-28 melanoma): > 100 µM
- TGI (ACHN renal): 27.5 µM
- TGI (A549 NSCLC): 66.1 µM
- TGI (NCI-H460 lung): > 100 µM

Compound: CCOP(=O)(OCC)/C(C#N)=C\c1ccc(OC(C)=O)cc1
- TGI (HCT-116 colon): > 100 µM
- TGI (LXFL 529 NSCLC): > 100 µM
- TGI (SW-620 colon): > 100 µM
- TGI (NCI-H226 lung): > 100 µM
- TGI (NCI-H23 lung): > 100 µM
- TGI (CAKI-1 renal): > 100 µM
- TGI (MOLT-4 leukemia): > 100 µM
- TGI (TK-10 renal): > 100 µM
- TGI (A498 renal): > 100 µM
- TGI (UACC-62 melanoma): > 100 µM
- TGI (SNB-75 CNS): > 100 µM
- TGI (M14 melanoma): > 100 µM
- TGI (SNB-78 CNS): > 100 µM
- TGI (IGROV1 ovarian): > 100 µM
- TGI (UO-31 renal): > 100 µM
- TGI (HOP-62 NSCLC): > 100 µM
- TGI (SF-539 CNS): > 100 µM
- TGI (HCT-15 colon): > 100 µM
- TGI (HL-60(TB) leukemia): > 100 µM
- TGI (SK-OV-3 ovarian): > 100 µM
- TGI (SNB-19 CNS): > 100 µM
- TGI (SR leukemia): > 100 µM
- TGI (LOX IMVI melanoma): > 100 µM
- TGI (OVCAR-8 ovarian): > 100 µM
- TGI (DU-145 prostate): > 100 µM
- TGI (MALME-3M melanoma): > 100 µM
- TGI (KM20L2 colon): > 100 µM
- TGI (CCRF-CEM leukemia): > 100 µM
- TGI (K-562 leukemia): > 100 µM
- TGI (UACC-257 melanoma): > 100 µM
- TGI (KM12 colon): > 100 µM
- TGI (HCC-2998 colon): > 100 µM
- TGI (XF 498 CNS): > 100 µM
- TGI (OVCAR-4 ovarian): > 100 µM
- TGI (SF-295 CNS): > 100 µM
- TGI (EKVX NSCLC): > 100 µM
- TGI (SF-268 CNS): > 100 µM
- TGI (RXF 393 renal): > 100 µM
- TGI (NCI-H522 lung): > 100 µM
- TGI (SK-MEL-2 melanoma): > 100 µM
- TGI (COLO 205 colon): > 100 µM
- TGI (M19-MEL melanoma): > 100 µM
- TGI (786-0 renal): > 100 µM
- TGI (HT29 colon): > 100 µM
- TGI (OVCAR-3 ovarian): > 100 µM
- TGI (SK-MEL-5 melanoma): > 100 µM
- TGI (DLD-1 colon): > 100 µM
- TGI (DMS 114 small cell lung): > 100 µM
- TGI (OVCAR-5 ovarian): > 100 µM
- TGI (HOP-18 NSCLC): > 100 µM
- TGI (U251 CNS): > 100 µM
- TGI (SN12C renal): > 100 µM
- TGI (HOP-92 NSCLC): > 100 µM
- TGI (SK-MEL-28 melanoma): > 100 µM
- TGI (RPMI-8226 leukemia): > 100 µM
- TGI (ACHN renal): > 100 µM
- TGI (A549 NSCLC): > 100 µM
- TGI (NCI-H460 lung): > 100 µM
